pIC50: −log10 of the molar value. Where two headings read alike, the source gives them in different places.
Experiments:
A2780 cells = assay: Proliferation assay A2780 (Method 3); type: cell-based, human; conditions: A2780, 4 days, crystal violet, read-out: Inhibition of A2780 cell proliferation IC50
Experimental: (§1) Cultivated tumour cells (HeLa, human cervical tumour cells, ATCC CCL-2; NCI-H460, human non-small cell lung carcinoma cells, ATCC HTB-177; A2780, human ovarian carcinoma cells, ECACC #93112519; DU 145, hormone-independent human prostate carcinoma cells, ATCC HTB-81; HeLa-MaTu-ADR, multidrug-resistant human cervical carcinoma cells, EPO-GmbH Berlin; Caco-2, human colorectal carcinoma cells, ATCC HTB-37; B16F10, mouse melanoma cells, ATCC CRL-6475) were plated at a density of 5,000 cells/well (DU145, HeLa-MaTu-ADR), 3,000 cells/well (NCI-H460, HeLa), 2,500 cells/well (A2780), 1,500 cells/well (Caco-2), or 1,000 cells/well (B16F10) in a 96-well multititer plate in 200 μL of their respective growth medium supplemented 10% fetal calf serum. After 24 hours, the cells of one plate (zero-point plate) were stained with crystal violet (see below), while the medium of the other plates was replaced by fresh culture medium (200 μl), to which the test substances were added in various concentrations (0 μM, as well as in the range of 0.001-10 μM; the final concentration of the solvent dimethyl sulfoxide was 0.5%). The cells were incubated for 4 days in the presence of test substances. Cell proliferation was determined by staining the cells with crystal violet: the cells were fixed by adding 20 μl/measuring point of an 11% glutaric aldehyde solution for 15 minutes at room temperature. After three washing cycles of the fixed cells with water, the plates were dried at room temperature. The cells were stained by adding 100 μl/measuring point of a 0.1% crystal violet solution (pH 3.0). After three washing cycles of the stained cells with water, the plates were dried at room temperature. The dye was dissolved by adding 100 μl/measuring point of a 10% acetic acid solution. The extinction was determined by photometry at a wavelength of 595 nm. The change of cell number, in percent, was calculated by normalization of the measured values to the extinction values of the zero-point plate (=0%) and the extinction of the untreated (0 μm) cells (=100%). The IC50 values (inhibitory concentration at 50% of maximal effect) were determined by means of a 4 parameter fit.

MOLM-13 cells = assay: Proliferation assay MOLM-13 (Method 3); type: cell-based, human; conditions: MOLM-13, 72-hour exposure, Cell Titre-Glo, read-out: Inhibition of MOLM-13 cell proliferation IC50
Experimental: Non-adherent MOLM-13 human acute myeloid leukemia cells (DSMZ ACC 554) were seeded at a density of 5,000 cells/well in a 96-well multititer plate in 100 μL of growth medium supplemented 10% fetal calf serum. After 24 hours, cell viability of one plate (zero-point plate) was determined with the Cell Titre-Glo Luminescent Cell Viability Assay (Promega), while 50 μL of test compound containing medium was added to the wells of the other plates (final concentrations in the range of 0.001-10 μM and DMSO controls; the final concentration of the solvent dimethyl sulfoxide was 0.5%). Cell viability was assessed after 72-hour exposure with the Cell Titre-Glo Luminescent Cell Viability Assay (Promega). IC50 values (inhibitory concentration at 50% of maximal effect) were determined by means of a 4 parameter fit on measurement data which were normalized to vehicle (DMSO) treated cells (=100%) and measurement readings taken immediately before compound exposure (=0%).

DU145 cells = assay: Proliferation assay DU145 (Method 3); type: cell-based, human; conditions: DU145, 4 days, crystal violet, read-out: Inhibition of DU145 cell proliferation IC50
Experimental: as §1

CDK9/CycT1 = target: T1, CDK9/CycT1 (Homo sapiens, UniProt P50750); assay: CDK9/CycT1 kinase assay (Method 1a, TR-FRET); type: biochemical; conditions: 10 μM ATP; for Selectivity CDK9 over CDK2: IC50 (CDK2)/IC50 (CDK9): Methods 1a. and 2a.
T1 construct: Recombinant full-length His-tagged human CDK9 and CycT1; His; purchased Invitrogen PV4131; host or cells: insect cells
T1 sequence (P50750 whole entry): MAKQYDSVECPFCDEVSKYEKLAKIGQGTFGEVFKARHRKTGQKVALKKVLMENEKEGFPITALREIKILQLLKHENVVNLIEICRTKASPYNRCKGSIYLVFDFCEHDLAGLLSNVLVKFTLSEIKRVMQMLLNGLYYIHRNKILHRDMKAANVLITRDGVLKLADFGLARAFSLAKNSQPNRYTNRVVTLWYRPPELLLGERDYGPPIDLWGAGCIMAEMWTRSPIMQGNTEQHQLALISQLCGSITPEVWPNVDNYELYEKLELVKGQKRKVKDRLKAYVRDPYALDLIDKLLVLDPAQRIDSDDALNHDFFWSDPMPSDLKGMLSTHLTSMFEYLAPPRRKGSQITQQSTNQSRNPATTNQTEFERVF
T1 sequence (O60563 whole entry partner): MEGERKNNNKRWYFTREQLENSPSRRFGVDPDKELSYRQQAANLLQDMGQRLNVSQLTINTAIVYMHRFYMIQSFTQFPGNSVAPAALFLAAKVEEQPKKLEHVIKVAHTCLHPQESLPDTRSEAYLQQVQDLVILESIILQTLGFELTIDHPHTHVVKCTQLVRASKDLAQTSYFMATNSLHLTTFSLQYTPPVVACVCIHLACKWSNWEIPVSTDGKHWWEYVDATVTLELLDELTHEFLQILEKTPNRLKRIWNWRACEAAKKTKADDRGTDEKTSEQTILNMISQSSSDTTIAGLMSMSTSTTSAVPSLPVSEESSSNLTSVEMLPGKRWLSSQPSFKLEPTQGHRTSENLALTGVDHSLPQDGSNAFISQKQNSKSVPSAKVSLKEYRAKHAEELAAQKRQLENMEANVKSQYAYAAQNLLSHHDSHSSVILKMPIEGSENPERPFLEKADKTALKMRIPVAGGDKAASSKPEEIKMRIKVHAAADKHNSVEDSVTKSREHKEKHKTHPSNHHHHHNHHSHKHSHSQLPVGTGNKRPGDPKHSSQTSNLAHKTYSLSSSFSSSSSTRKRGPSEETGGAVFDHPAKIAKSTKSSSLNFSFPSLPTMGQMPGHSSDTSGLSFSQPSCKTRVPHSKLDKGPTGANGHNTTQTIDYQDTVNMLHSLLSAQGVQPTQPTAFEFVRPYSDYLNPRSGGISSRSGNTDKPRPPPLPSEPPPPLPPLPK
Description: 1a. CDK9/CycT1 Kinase Assay:
CDK9/CycT1-Inhibitory Activity of Compounds of the Present Invention was Quantified Employing the CDK9/CycT1 TR-FRET Assay as Described in the Following Paragraphs:
Recombinant full-length His-tagged human CDK9 and CycT1, expressed in insect cells and purified by Ni-NTA affinity chromatography, were purchased from Invitrogen (Cat. No PV4131). As substrate for the kinase reaction biotinylated peptide biotin-Ttds-YISPLKSPYKISEG (C-terminus in amid form) was used which can be purchased e.g. form the company JERINI Peptide Technologies (Berlin, Germany). For the assay 50 nl of a 100 fold concentrated solution of the test compound in DMSO was pipetted into a black low volume 384 well microtiter plate (Greiner Bio-One, Frickenhausen, Germany), 2 μl of a solution of CDK9/CycT1 in aqueous assay buffer [50 mM Tris/HCl pH 8.0, 10 mM MgCl2, 1.0 mM dithiothreitol, 0.1 mM sodium ortho-vanadate, 0.01% (v/v) Nonidet-P40 (Sigma)] were added and the mixture was incubated for 15 min at 22° C. to allow pre-binding of the test compounds to the enzyme before the start of the kinase reaction. Then the kinase reaction was started by the addition of 3 μl of a solution of adenosine-tri-phosphate (ATP, 16.7 μM=>final conc. in the 5 μl assay volume is 10 μM) and substrate (1.67 μM=>final conc. in the 5 μl assay volume is 1 μM) in assay buffer and the resulting mixture was incubated for a reaction time of 25 min at 22° C. The concentration of CDK9/CycT1 was adjusted depending of the activity of the enzyme lot and was chosen appropriate to have the assay in the linear range, typical concentrations were in the range of 1 μg/mL. The reaction was stopped by the addition of 5 μl of a solution of TR-FRET detection reagents (0.2 μM streptavidine-XL665 [Cisbio Bioassays, Codolet, France] and 1 nM anti-RB(pSer807/pSer811)-antibody from BD Pharmingen [#558389] and 1.2 nM LANCE EU-W1024 labeled anti-mouse IgG antibody [Perkin-Elmer, product no. AD0077]) in an aqueous EDTA-solution (100 mM EDTA, 0.2% (w/v) bovine serum albumin in 100 mM HEPES/NaOH pH 7.0).
The resulting mixture was incubated 1 h at 22° C. to allow the formation of complex between the phosphorylated biotinylated peptide and the detection reagents. Subsequently the amount of phosphorylated substrate was evaluated by measurement of the resonance energy transfer from the Eu-chelate to the streptavidine-XL. Therefore, the fluorescence emissions at 620 nm and 665 nm after excitation at 350 nm was measured in a HTRF reader, e.g. a Rubystar (BMG Labtechnologies, Offenburg, Germany) or a Viewlux (Perkin-Elmer). The ratio of the emissions at 665 nm and at […] was taken as the measure for the amount of phosphorylated substrate. The data were normalised (enzyme reaction without inhibitor=0% inhibition, all other assay components but no enzyme=100% inhibition).

Row | Compound | pIC50 (A2780 cells; Homo sapiens, A2780, 96 h) | pIC50 (MOLM-13 cells; Homo sapiens, MOLM-13, 72 h) | pIC50 (DU145 cells; Homo sapiens, DU-145, 96 h) | pIC50 (CDK9/CycT1) | Selectivity CDK9 over CDK2: IC50 (CDK2)/IC50 (CDK9) (CDK9/CycT1) | pIC50 (A2780 cells) | pIC50 (MOLM-13 cells) | pIC50 (DU145 cells)
1 | CS(=O)(Cc1cccc(Nc2ncc(F)c(-c3ccc(F)c4ccoc34)n2)c1)=NC#N (racemic) [Example 1, (rac)-[(3-{[5-Fluoro-4-(4-fluoro-1-benzofuran-7-yl)pyrimidin-2-yl]amino}benzyl)(methyl)oxido-λ^6-sulfanylidene]cyanamide] | 7.34 | 7.08 | 6.95 | 8.64 | 32 |  |  | 
2 | CS(=N)(=O)Cc1cccc(Nc2ncc(F)c(-c3ccc(F)c4ccoc34)n2)c1 (racemic) [Example 4, (rac)-5-Fluoro-4-(4-fluoro-1-benzofuran-7-yl)-N-{3-[(S-methylsulfonimidoyl)-methyl]phenyl}-pyrimidin-2-amine] | 7.28 | 6.97 | 6.77 | 8.34 | 24 |  |  | 
3 | CS(=O)(Cc1cc(F)cc(Nc2ncc(F)c(-c3ccc(F)c4ccoc34)n2)c1)=NC#N (racemic) [Example 7, (rac)-[(3-Fluoro-5-{[5-fluoro-4-(4-fluoro-1-benzofuran-7-yl)pyrimidin-2-yl]amino}benzyl)(methyl)-oxido-λ^6-sulfanylidene]cyanamide] | 7.64 | 7.77 | 7.29 | 8.39 | 14 |  |  | 
4 | CS(=N)(=O)Cc1cc(F)cc(Nc2ncc(F)c(-c3ccc(F)c4ccoc34)n2)c1 (racemic) [Example 10, (rac)-5-Fluoro-4-(4-fluoro-1-benzofuran-7-yl)-N-{3-fluoro-5-[(S-methylsulfonimidoyl)-methyl]-phenyl}-pyrimidin-2-amine] | 7.43 | 7.43 | 7.14 | 8.51 | 16 |  |  | 
5 | Cc1cc(CS(C)(=O)=NC#N)cc(Nc2ncc(F)c(-c3ccc(F)c4ccoc34)n2)c1 (racemic) [Example 13, (rac)-[(3-{[5-Fluoro-4-(4-fluoro-1-benzofuran-7-yl)pyrimidin-2-yl]amino}-5-methylbenzyl)-(methyl)oxido-λ^6-sulfanylidene]cyanamide] | 7.47 |  | 7.07 |  |  |  |  | 
6 | Cc1cc(CS(C)(=N)=O)cc(Nc2ncc(F)c(-c3ccc(F)c4ccoc34)n2)c1 (racemic) [Example 16, (rac)-5-Fluoro-4-(4-fluoro-1-benzofuran-7-yl)-N-{3-methyl-5-[(S-methylsulfonimidoyl)-methyl]phenyl}pyrimidin-2-amine] | 7.46 | 7.48 | 6.97 | 8.31 | 16 |  |  | 
7 | CS(=O)(Cc1cc(Nc2ncc(F)c(-c3ccc(F)c4ccoc34)n2)cc(S(F)(F)(F)(F)F)c1)=NC#N (racemic) [Example 17, (rac)-{[3-{[5-fluoro-4-(4-fluoro-1-benzofuran-7-yl)pyrimidin-2-yl]amino}-5-(pentafluoro-λ^6-sulfanyl)benzyl](methyl)oxido-λ^6-sulfanylidene}cyanamide] | 7.01 | 7.24 | 7.03 | 8.10 | 33 |  |  | 
8 | CS(=N)(=O)Cc1cc(Nc2ncc(F)c(-c3ccc(F)c4ccoc34)n2)cc(S(F)(F)(F)(F)F)c1 (racemic) [Example 18, (rac)-5-Fluoro-4-(4-fluoro-1-benzofuran-7-yl)-N-{3-[(S-methylsulfonimidoyl)methyl]-5-(pentafluoro-λ^6-sulfanyl)phenyl}pyrimidin-2-amine] | 7.47 | 7.52 | 6.85 | 8.54 | 25 |  |  | 
9 | CS(=O)(Cc1cccc(Nc2ncc(F)c(-c3ccc(F)c4ccoc34)n2)c1)=NC#N (single isomer, unassigned) [Example 2, [(3-{[5-Fluoro-4-(4-fluoro-1-benzofuran-7-yl)pyrimidin-2-yl]amino}benzyl)(methyl)oxido-λ^6-sulfanylidene]cyanamide] |  |  |  | 8.85 | 14 | 7.26 | 7.54 | 7.27
10 | CS(=O)(Cc1cccc(Nc2ncc(F)c(-c3ccc(F)c4ccoc34)n2)c1)=NC#N (single isomer, unassigned) [Example 3, [(3-{[5-Fluoro-4-(4-fluoro-1-benzofuran-7-yl)pyrimidin-2-yl]amino}benzyl)(methyl)oxido-λ^6-sulfanylidene]cyanamide] | 7.17 | 7.33 | 6.98 | 8.48 | 14 |  |  | 
11 | CS(=N)(=O)Cc1cc(F)cc(Nc2ncc(F)c(-c3ccc(F)c4ccoc34)n2)c1 (single isomer, unassigned) [Example 11, 5-Fluoro-4-(4-fluoro-1-benzofuran-7-yl)-N-{3-fluoro-5-[(S-methylsulfonimidoyl)-methyl]-phenyl}-pyrimidin-2-amine] | 7.49 |  | 7.39 |  |  |  |  | 
12 | CS(=N)(=O)Cc1cc(F)cc(Nc2ncc(F)c(-c3ccc(F)c4ccoc34)n2)c1 (single isomer, unassigned) [Example 12, 5-Fluoro-4-(4-fluoro-1-benzofuran-7-yl)-N-{3-fluoro-5-[(S-methylsulfonimidoyl)-methyl]-phenyl}-pyrimidin-2-amine] |  |  |  | 8.51 | 15 | 7.46 |  | 7.21
